# In patent US7388071B2, “Composition and method for inducing and enhancing a telomerase reverse transcriptase-reactive cytotoxic T lymphocyte response” (The Regents of the University of California, priority 2000, dated 2008):
# Peptide text beside a SMILES is read from it.
# Key:
# HLA-A2.1 molecule = target: T1, HLA-A2.1 molecule (Homo sapiens, UniProt P04439, D140Y/D185E/D98H/E176V/E277Q/G131W/G231S/I119V/I121R/I166T/I218V/L300P/L318F/N151K/N90K/P208A/P217A/Q86G/Q94H/R138H/R169H/T345S); experiment: HLA-A2.1 binding/stabilization assay on TAP- T2 cells; details: time required for a 50% reduction in mean fluorescence intensity
# T1 construct: endogenous in cells; host or cells: human T2 cells (TAP-, HLA-A2.1+)
# Method: The relative avidity was measured as previously described (25). Briefly, T2 cells were incubated overnight at 37° C. in RPMI supplemented with human β2-microglobulin (100 ng/ml) (Sigma, St. Louis, Mo.) in the absence (negative control) or presence of the test peptide or the reference peptide 4761[…]484 (SEQ ID NO:7) of HIV-1 reverse transcriptase at various final peptide concentrations (0.1-100 μM). Cells were incubated with Brefeldin A (0.5 μg/ml) for one hour and subsequently stained with a saturating concentration of monoclonal antibody BB7.2 for 30 minutes at +4° C. followed by washing and a second incubation with a goat antibody to mouse Ig (Fab′)2 conjugated to FITC (Caltag, South San Francisco). Cells were then washed, fixed with 1% paraformaldehyde and analyzed in a FACs Calibur cytofluorimeter (Becton & Dickinson, San Jose, Calif.). The mean fluorescence intensity of each concentration minus that of cells without peptide was used as an estimate of peptide binding. […] Dissociation of the test peptide from the HLA-A2.1 molecule reflects the half-life of fluorescence intensity of the peptide/MHC complex over time. The half-life of the complex (DC50) refers to the time (hours) required for a 50% reduction of the TO mean fluorescence intensity (25). Synthetic peptides 571[…]579 (SEQ ID NO:5) of carcinoembryonic antigen (CEA) and 476[…]486 (SEQ ID NO:6) of melanoma antigen gp100 were used as internal controls to account for inter-tests variability and for consistency with previously reported RA and DC50 measures (25).
# Since the immunogenicity of MHC Class I-restricted peptides reflects to some degree their binding and stabilizing capacity for MHC Class I molecules (31-33) Applicant sought direct proof of the strength of interaction between the two hTRT peptides and the HLA-A2.1 molecule in a conventional binding/stabilization assay that uses the antigen-transporting deficient (TAP-) HLA-A2.1+ human T2 cells. […] The stability of each peptide bound to HLA-A2.1 was measured as the half-life of the complex
# HLA-A2+ CD34+ cells = details: reference 24; cited from earlier work
# [1] = test system: hTRT+/HLA-A2+ melanoma cell line 624; experiment: Normal donor CTL against p572(Y), lysis of melanoma 624; type: cell-based, human; details: normal blood donor PBMC immunized in vitro
# Text: FIG. 6. […] The results are expressed as percent lysis and show by comparison lysis of 624 melanoma cells, and HLA-A2+T2 target cells pulsed with the p572(Y) and p572 wild type peptides, respectively. Nonspecific lysis of T2 cells is shown as a control.
# CTL generated against p572 were also able to lyze the hTRT+/HLA-A2+ melanoma cell line 624. The antigen-recognition activity of T cells is intimately linked with recognition of MHC (HLA in humans) molecules.
# [2] = test system: HLA-A2+T2 target cells pulsed with peptide; experiment: In vitro immunization of normal HLA-A2+ donor PBMC with Y-modified hTRT peptides; type: cell-based, human
# Text: PBMC from three normal HLA-A2+ individuals were immunized with the Y-modified peptides. The results are summarized as follows (Table VII).
# [3] = target: T2, HLA-A2.1 molecule on TAP-deficient human T2 cells (human); experiment: T2 cell HLA-A2.1 binding/stabilization assay, BB7.2 flow cytometry; ratio of peptide concentration giving 20% of maximal binding, against reference peptide [..] (SEQ ID NO:7) of HIV-1 reverse transcriptase; lower is stronger
# T2 construct: MHC class I molecule on the surface of T2 cells; also called MHC Class I
# Method: Briefly, T2 cells were incubated overnight at 37° C. in RPMI supplemented with human β2-microglobulin (100 ng/ml) (Sigma, St. Louis, Mo.) in the absence (negative control) or presence of the test peptide or the reference peptide 476_1[…]$484$ (SEQ ID NO:7) of HIV-1 reverse transcriptase at various final peptide concentrations (0.1-100 µM). Cells were incubated with Brefeldin A (0.5 µg/ml) for one hour and subsequently stained with a saturating concentration of monoclonal antibody BB7.2 for 30 minutes at +4° C. followed by washing and a second incubation with a goat antibody to mouse Ig (Fab')2 conjugated to FITC (Caltag, South San Francisco). Cells were then washed, fixed with 1% paraformaldehyde and analyzed in a FACs Calibur cytofluorimeter (Becton & Dickinson, San Jose, Calif.). The mean fluorescence intensity of each concentration minus that of cells without peptide was used as an estimate of peptide binding. […] Dissociation of the test peptide from the HLA-A2.1 molecule reflects the half-life of fluorescence intensity of the peptide/MHC complex over time. The half-life of the complex (DC50) refers to the time (hours) required for a 50% reduction of the TO mean fluorescence intensity (25). Synthetic peptides $571$[…]$579$ (SEQ ID NO:5) of carcinoembryonic antigen (CEA) and $476$[…]$486$ (SEQ ID NO:6) of melanoma antigen gp100 were used as internal controls to account for intertests variability and for consistency with previously reported RA and DC50 measures (25).
# Since the immunogenicity of MHC Class I-restricted peptides reflects to some degree their binding and stabilizing capacity for MHC Class I molecules (31-33) Applicant sought direct proof of the strength of interaction between the two hTRT peptides and the HLA-A2.1 molecule in a conventional binding/stabilization assay that uses the antigen-transporting deficient (TAP-) HLA-A2.1+ human T2 cells.
molecule,measurement,setting,value
CC[C@H](C)[C@H](N)C(=O)N[C@@H](CC(C)C)C(=O)N[C@@H](C)C(=O)N[C@@H](CCCCN)C(=O)N[C@@H](Cc1ccccc1)C(=O)N[C@@H](CC(C)C)C(=O)N[C@@H](Cc1c[nH]cn1)C(=O)N[C@@H](Cc1c[nH]c2ccccc12)C(=O)N[C@@H](CC(C)C)C(=O)O [p540] (H-ILAKFLHWL-OH),DC50 (half-life of peptide/HLA-A2.1 complex),HLA-A2.1 molecule,4 to 6 h
same,lysis of HLA-A2+ CD34+ cells by CTL raised in normal individuals,HLA-A2+ CD34+ cells,did not lyse
CC(C)C[C@H](NC(=O)[C@H](Cc1ccccc1)NC(=O)[C@H](CC(=O)O)NC(=O)[C@H](CC(=O)O)NC(=O)[C@@H](NC(=O)[C@H](CC(C)C)NC(=O)[C@@H](N)CCCNC(=N)N)C(C)C)C(=O)N[C@@H](CC(C)C)C(=O)N[C@H](C(=O)O)C(C)C [p865] (H-RLVDDFLLV-OH),DC50 (half-life of peptide/HLA-A2.1 complex),HLA-A2.1 molecule,2 to 4 h
RLFFYRKSV [p572 wild type],lysis of melanoma cell line 624 in words,[1],able to lyze
"VLYRYGSFSV (listed as Homo sapiens) [gp100 p476, peptide of human melanoma antigen gp100, internal control]",DC50 (half-life of peptide/HLA-A2.1 complex),HLA-A2.1 molecule,4 to 6 h
"YELLRSFFYV (listed as Homo sapiens) [p555(Y), Y-modified hTRT peptide p555]",CTL against target cells pulsed with p555(Y),[2]; donor 218,4%
same,CTL against target cells pulsed with p555(Y),[2]; donor 219,8%
same,CTL against target cells pulsed with p555(Y),[2]; donor 222,1%
"YLARCALFV (listed as Homo sapiens) [p152(Y), Y-modified hTRT peptide p152]",CTL against target cells pulsed with p152(Y),[2]; donor 218,7%
same,CTL against target cells pulsed with p152(Y),[2]; donor 219,2%
same,CTL against target cells pulsed with p152(Y),[2]; donor 222,1%
"YLFFYRKSV (listed as Homo sapiens) [p572(Y), Y-modified hTRT peptide p572]",CTL against target cells pulsed with p572(Y),[2]; donor 218,48-50%
same,CTL against target cells pulsed with p572 wild type,[2]; donor 218,26-46%
same,CTL against target cells pulsed with p572(Y),[2]; donor 219,4%
same,CTL against target cells pulsed with p572(Y),[2]; donor 222,27%
same,CTL against target cells pulsed with p572 wild type,[2]; donor 222,5%
same,lysis of melanoma cell line 624 in words,[1],kill melanoma cells 624
"RLVDDFLLV (Synthetic 9mer, bought from the Biopolymer Synthesis Center (CalTech)) [hTRT p865 synthetic peptide (residues 865-873 of human telomerase reverse transcriptase)]",Relative Avidity (RA),[3],2.5
VLYRYGSFSV (bought from Neosystem) [gp100 p476 synthetic peptide of human melanoma antigen gp100],Relative Avidity (RA),[3],9
"ILAKFLHWL (Synthetic 9mer, bought from the Biopolymer Synthesis Center (CalTech)) [hTRT p540 synthetic peptide (residues 540-548 of human telomerase reverse transcriptase)]",Relative Avidity (RA),[3],2.9
